Test results reported in US10851043B1, “Compound for fatty acid synthase inhibition” (KANNUR UNIVERSITY, priority 2019, dated 2020).
In brackets after ≈: the same amount, converted by molar mass.

Assays:
[1] = In-vitro cytotoxic effect on cultured L929 cells (MTT assay); type: cell-based; details: mouse
Procedure: (§1) Cultures of L929 (Fibroblast cells) were maintained in Dulbecco's modified eagles media supplemented with 10% fetal bovine serum (FBS) and grown to confluence at 37° C. and 5% CO2 in a humidified atmosphere using a CO2 incubator. The cells were trypsinised (500 μL of 0.025% Trypsin in PBS/0.5 mM Ethylene diamine tetraacetic acid (EDTA) solution for 2 minutes and passed to T flasks under complete aseptic conditions. Test compounds were added to grown cells at a final concentration of 6.25, 12.5, 25, 50 and 100 μg/mL from a stock of 1 mg/mL and incubated for 24 hours. The percentage difference in viability was determined by standard MTT assay after 24 hours of incubation. The MTT assay is a colorimetric assay for assessing cell metabolic activity. NAD (P) H-dependent cellular oxidoreductase enzymes under defined conditions, reflect the number of viable cells present.
(§2) Viability percentage was calculated using the Formula, % viability=(OD of Test/OD of control)×100, • where control OD was 0.993.

L929 (Fibroblast cells) = assay: as above; type: cell-based; details: MTT, 24 hours
Procedure: as §1, §2

[2] = test system: A549 lung carcinoma cells; assay: In-vitro anti-proliferative property on cultured A549 cells (MTT assay); type: cell-based; details: for IC50 / viability at 6.25 µg/mL / viability at 12.5 µg/mL / viability at 25 µg/mL / viability at 50 µg/mL / viability at 100 µg/mL: Homo sapiens; for IC50: A549, 24 h, read-out: IC50 anti-proliferative activity against A549 cells; for IC50 / IC50 anti-proliferative activity against A549 cells: MTT; for viability at 6.25 µg/mL / viability at 12.5 µg/mL / viability at 25 µg/mL / viability at 50 µg/mL / viability at 100 µg/mL / IC50 anti-proliferative activity against A549 cells / Percentage Viability: 24 hours; for viability at 6.25 µg/mL / viability at 12.5 µg/mL / viability at 25 µg/mL / viability at 50 µg/mL / viability at 100 µg/mL: read-out: Percentage Viability
Procedure: A549 lung carcinoma cells were maintained in Dulbecco's modified eagles media (Himedia, India) supplemented with 10% FBS (Invitrogen, India) and grown to confluence at 37° C. and 5% CO2 in a humidified atmosphere using a CO2 incubator (NBS, Eppendorf, Germany). The cells were trypsinized (500 μL of 0.025% trypsin in PBS/0.5 mM EDTA solution (Himedia, India) for 2 minutes and transferred to T flasks under aseptic condition. Test compounds were added to grown cells with a final concentration of 6.25, 12.5, 25, 50, 100 μg/mL from a stock of 1 mg/mL and incubated for 24 hours. The % difference in viability was determined by standard MTT assay (Arung et al. 2000) after 24 hours of incubation. Viability percentage was calculated using the Formula, % viability=(OD of Test/OD of Control)×100

Bacterial FAS II enzyme = assay: FAS II assay (NADPH oxidation at 340 nm); type: biochemical, Bacillus subtilis; details: for Average ΔC (change in concentration of NADPH): control 0.05037
Procedure: Crude FAS containing protein fraction was isolated according to the modified protocol of Ahmad et al. (1981). Stock culture of Bacillus subtilis was inoculated in 100 mL LB broth pH 7.2 and cultured for 24 hours at room temperature. It was used for further inoculation of four 1000 mL flasks with same media and culture conditions. The flasks were placed in a rotator shaker to ensure adequate suspension of cells. Bacteria were harvested during the late-exponential phase of growth by centrifugation at 10000×g for 10 minutes and washed twice with 50 mM sodium phosphate buffer (pH 7.0) to provide cell pastes which were stored at -20° C. until use. Frozen cell pastes (25-35 g) were thawed and suspended in 50 mM sodium phosphate buffer (pH 7.0). The cell suspension was disrupted by sonication (12 W, 6×15 pulses with 15 second intervals) in 2 mL Eppendorf tubes containing 1.5 mL of cell suspension, supplemented with lysozyme (250 μg/mL) in a sonicator, operating at maximum power output while maintaining the temperature below 4° C. Unbroken cells and cell debris were removed by centrifugation at 30000×g for 30 minutes at 4° C. The […] were re-suspended in 50 mM sodium phosphate buffer (pH 7.0) and made up to appropriate volume and subjected to ammonium sulphate precipitation. Solid ammonium sulphate was added and the protein precipitate at 40-60% saturation was collected by centrifugation, dialyzed and used for further assay. FAS assay for FAS I enzyme was performed according to a modified process of Li et al. 2002. Crude protein was made up to a concentration of 0.5 mg/mL of protein and used for the assay. Assay was carried out in 96 well plates with the final working volume of 100 μL. […] The microplate was read immediately for 10 minutes at 340 nm. FAS activity was calculated by subtracting the optical density (OD) value obtained after 1 minute from the OD value obtained after 10 minutes. FAS activity was calculated and compared with that of control and test compounds. Dimethyl sulfoxide (DMSO) was taken as control as it was used to dilute the compounds. […] The negative control consisted of protein plus reaction buffer. Another control consisted of buffer reaction without protein. The IC50 was determined by linear regression. FAS activity was determined by the rate of oxidation of NADPH to NADP which was monitored at 340 nm. The change in concentration of NADPH during oxidation was calculated using the following equation: ΔC=ΔA/E Where, ΔC was change in the concentration of NADPH, ΔA was change in absorbance, and E was extinction coefficient of NADPH ([…] nm=6.22 mM^-1·cm^-1). FAS activity was expressed as n mol NADPH oxidized/min/mg protein. Assay using partially purified enzyme from Bacillus subtilis was also performed to verify the FAS II inhibitory activity of compound of Formula II. […] The graph was plotted with change in concentration of NADP to NADPH against time. Each point in graph was the concentration of NADPH measured on a spectrophotometer at 340 nm (FIGS. 6 and 7 for FAS II and FAS I respectively).

[3] = test system: FAS I enzyme from bovine liver; assay: FAS I assay (NADPH oxidation at 340 nm); type: biochemical, Indian water buffalo; details: for Average ΔC (change in concentration of NADPH): control 0.051383
Procedure: Crude preparation of FAS I enzyme was made according to modified protocol of Dulter et al. (1971). Liver from freshly slaughtered Indian water buffalo was collected and transported in ice bucket and kept at 4° C. till processing. The liver was processed at the earliest by removing connective tissues and sliced into small pieces. Using a blender, about 750 g of liver was minced to form a suspension with 0.05 M potassium phosphate buffer pH 7.4 containing 1 mM EDTA to make up to a volume of 2.5 liters. The thick solution was centrifuged at 7500×g for 20 minutes to remove meat debris and the supernatant obtained was further centrifuged at 30000×g for 30 minutes to get a translucent solution. The supernatant was further diluted to specific volume using 0.05 M Potassium phosphate buffer (pH 7.4) with 1 mM EDTA and brought initially to 10% and then to 40% saturation with solid ammonium sulfate at 4° C. The 40% ammonium sulfate fraction was centrifuged and protein precipitate was re-dissolved in 0.05 mM Tris HCl buffer, pH 7.4, dialyzed against same buffer. The FAS I enzyme was further purified by ion exchange chromatography with Diethylaminoethyl (DEAE) cellulose column as described above (Dulter et al. 1971).
FAS assay for FAS I enzyme was performed according to a modified process of Li et al. 2002. Crude protein was made up to a concentration of 0.5 mg/mL of protein and used for the assay. Assay was carried out in 96 well plates with the final working volume of 100 μL. Compounds to be tested were incubated with previously made crude protein extract for 30 minutes at 25° C. 50 μL of this mixture was added to 50 of reaction mixture containing 1 mM each of malonyl CoA and Nicotinamide adenine dinucleotide phosphate (NADPH), 40 μM acetyl CoA, and 2 mM Dithiothreitol (DTT) in phosphate buffer (250 mM).
The microplate was read immediately for 10 minutes at 340 nm. FAS activity was calculated by subtracting the optical density (OD) value obtained after 1 minute from the OD value obtained after 10 minutes. FAS activity was calculated and compared with that of control and test compounds. Dimethyl sulfoxide (DMSO) was taken as control as it was used to dilute the compounds. […] The negative control consisted of protein plus reaction buffer. Another control consisted of buffer reaction without protein. The IC50 was determined by linear regression. FAS activity was determined by the rate of oxidation of NADPH to NADP which was monitored at 340 nm. The change in concentration of NADPH during oxidation was calculated using the following equation: ΔC=ΔA/E
Where, ΔC was change in the concentration of NADPH, ΔA was change in absorbance, and E was extinction coefficient of NADPH (E340 nm=6.22 mM^−1·cm^−1). FAS activity was expressed as n mol NADPH oxidized/min/mg protein.

[4] = target: FAS prepared from Saccharomyces cerevisiae (Saccharomyces cerevisiae, UniProt P07149+P19097); details: Li et al. (2002), cited from earlier work
Chain of FAS prepared from Saccharomyces cerevisiae (P07149 whole entry): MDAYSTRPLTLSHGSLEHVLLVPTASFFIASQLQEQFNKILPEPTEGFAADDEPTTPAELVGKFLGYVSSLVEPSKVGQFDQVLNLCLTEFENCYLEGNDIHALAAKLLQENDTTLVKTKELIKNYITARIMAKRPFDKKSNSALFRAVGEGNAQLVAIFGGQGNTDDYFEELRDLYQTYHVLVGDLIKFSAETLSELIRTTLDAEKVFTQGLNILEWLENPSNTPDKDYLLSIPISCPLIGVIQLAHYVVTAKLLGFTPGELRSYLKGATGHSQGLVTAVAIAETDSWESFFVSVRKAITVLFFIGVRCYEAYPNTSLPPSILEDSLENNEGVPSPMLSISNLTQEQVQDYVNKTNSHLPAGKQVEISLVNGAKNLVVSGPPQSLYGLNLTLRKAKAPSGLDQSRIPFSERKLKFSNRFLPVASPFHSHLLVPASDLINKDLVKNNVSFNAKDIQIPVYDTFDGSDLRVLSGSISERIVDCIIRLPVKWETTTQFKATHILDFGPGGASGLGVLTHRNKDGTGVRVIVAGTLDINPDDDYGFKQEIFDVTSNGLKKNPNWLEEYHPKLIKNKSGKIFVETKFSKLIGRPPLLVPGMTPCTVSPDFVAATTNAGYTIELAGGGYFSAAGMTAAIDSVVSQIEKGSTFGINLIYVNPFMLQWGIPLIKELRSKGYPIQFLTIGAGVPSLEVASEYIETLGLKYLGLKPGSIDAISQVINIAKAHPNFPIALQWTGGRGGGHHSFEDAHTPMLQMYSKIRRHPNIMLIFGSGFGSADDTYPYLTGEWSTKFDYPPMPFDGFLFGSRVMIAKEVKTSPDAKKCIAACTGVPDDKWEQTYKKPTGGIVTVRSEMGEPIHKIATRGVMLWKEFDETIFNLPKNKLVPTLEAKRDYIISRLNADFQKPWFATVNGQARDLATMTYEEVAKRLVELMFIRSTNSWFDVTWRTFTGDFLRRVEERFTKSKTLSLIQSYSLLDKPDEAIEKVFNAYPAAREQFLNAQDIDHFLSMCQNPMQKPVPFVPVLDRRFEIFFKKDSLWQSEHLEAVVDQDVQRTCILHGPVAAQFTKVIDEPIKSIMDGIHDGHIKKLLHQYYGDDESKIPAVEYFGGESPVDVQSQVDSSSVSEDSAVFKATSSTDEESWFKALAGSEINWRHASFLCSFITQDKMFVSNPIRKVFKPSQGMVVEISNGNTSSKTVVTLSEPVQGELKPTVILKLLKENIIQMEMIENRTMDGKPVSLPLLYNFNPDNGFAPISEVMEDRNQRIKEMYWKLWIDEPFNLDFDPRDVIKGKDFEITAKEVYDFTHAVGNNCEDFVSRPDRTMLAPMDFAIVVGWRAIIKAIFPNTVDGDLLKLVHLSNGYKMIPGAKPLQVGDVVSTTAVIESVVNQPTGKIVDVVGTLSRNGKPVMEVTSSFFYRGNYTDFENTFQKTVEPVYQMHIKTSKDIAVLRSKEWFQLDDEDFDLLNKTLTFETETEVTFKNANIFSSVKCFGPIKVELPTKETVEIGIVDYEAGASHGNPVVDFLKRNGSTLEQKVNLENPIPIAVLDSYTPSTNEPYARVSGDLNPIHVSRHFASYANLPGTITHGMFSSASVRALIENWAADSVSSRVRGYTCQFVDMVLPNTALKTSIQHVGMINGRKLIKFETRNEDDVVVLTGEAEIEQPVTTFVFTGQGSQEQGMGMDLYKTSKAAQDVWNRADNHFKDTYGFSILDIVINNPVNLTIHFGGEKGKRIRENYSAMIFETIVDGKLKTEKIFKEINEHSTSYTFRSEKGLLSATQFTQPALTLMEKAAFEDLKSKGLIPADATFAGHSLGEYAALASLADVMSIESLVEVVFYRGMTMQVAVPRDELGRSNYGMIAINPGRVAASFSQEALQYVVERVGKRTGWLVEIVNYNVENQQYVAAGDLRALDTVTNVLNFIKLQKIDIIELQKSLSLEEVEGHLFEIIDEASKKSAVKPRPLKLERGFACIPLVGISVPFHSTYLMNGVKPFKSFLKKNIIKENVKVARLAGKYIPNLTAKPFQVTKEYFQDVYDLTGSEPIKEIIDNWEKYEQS
Chain of FAS prepared from Saccharomyces cerevisiae (P19097 whole entry): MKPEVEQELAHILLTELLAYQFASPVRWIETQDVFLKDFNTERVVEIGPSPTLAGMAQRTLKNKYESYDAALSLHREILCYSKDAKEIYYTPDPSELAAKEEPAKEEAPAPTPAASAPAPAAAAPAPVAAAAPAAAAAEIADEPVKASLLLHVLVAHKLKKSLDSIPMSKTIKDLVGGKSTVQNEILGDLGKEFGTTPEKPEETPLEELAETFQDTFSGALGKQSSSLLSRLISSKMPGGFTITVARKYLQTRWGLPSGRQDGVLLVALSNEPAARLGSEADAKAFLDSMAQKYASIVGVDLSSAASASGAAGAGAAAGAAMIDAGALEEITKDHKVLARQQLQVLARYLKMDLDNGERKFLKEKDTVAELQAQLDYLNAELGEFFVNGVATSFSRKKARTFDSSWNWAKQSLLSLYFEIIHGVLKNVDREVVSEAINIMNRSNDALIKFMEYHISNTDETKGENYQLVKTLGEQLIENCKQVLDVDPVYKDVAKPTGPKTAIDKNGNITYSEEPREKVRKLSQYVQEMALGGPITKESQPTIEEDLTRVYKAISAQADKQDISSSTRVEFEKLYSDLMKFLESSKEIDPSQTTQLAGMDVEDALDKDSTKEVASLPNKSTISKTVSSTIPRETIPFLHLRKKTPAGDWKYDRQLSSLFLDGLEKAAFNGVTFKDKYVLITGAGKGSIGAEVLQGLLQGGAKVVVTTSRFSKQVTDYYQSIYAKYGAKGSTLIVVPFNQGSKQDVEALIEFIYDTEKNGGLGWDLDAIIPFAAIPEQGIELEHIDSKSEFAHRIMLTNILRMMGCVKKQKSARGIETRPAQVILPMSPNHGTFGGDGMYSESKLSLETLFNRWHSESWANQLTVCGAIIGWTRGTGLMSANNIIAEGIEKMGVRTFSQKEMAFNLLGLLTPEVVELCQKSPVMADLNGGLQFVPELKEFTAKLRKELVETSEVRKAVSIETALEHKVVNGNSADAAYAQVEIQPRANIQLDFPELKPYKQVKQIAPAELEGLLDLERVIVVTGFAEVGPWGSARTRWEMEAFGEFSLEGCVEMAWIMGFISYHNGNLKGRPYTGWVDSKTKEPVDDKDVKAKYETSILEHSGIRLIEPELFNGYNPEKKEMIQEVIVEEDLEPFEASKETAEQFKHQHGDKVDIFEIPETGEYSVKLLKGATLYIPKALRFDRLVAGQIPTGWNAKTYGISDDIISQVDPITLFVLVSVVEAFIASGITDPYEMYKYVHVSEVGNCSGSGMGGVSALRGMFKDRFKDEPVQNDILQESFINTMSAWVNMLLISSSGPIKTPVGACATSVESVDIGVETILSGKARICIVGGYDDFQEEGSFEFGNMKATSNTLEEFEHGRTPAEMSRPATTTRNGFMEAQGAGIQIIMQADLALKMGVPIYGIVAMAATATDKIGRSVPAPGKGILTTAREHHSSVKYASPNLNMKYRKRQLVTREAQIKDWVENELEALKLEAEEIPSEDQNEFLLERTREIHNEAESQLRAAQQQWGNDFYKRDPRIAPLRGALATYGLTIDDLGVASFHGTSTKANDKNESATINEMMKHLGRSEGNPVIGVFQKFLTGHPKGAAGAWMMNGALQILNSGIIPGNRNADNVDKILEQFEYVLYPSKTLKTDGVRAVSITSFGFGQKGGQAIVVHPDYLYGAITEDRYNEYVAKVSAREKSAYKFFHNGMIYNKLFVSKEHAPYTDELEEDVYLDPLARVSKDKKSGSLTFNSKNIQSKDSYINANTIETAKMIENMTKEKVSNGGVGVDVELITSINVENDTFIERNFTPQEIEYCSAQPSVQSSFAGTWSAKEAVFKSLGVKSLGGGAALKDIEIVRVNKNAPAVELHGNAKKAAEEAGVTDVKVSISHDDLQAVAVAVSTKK

| SMILES | IC50 [2] | viability at 6.25 µg/mL ([2]; A549, 6.25 μg/mL) | viability at 12.5 µg/mL ([2]; A549, 12.5 μg/mL) | viability at 25 µg/mL ([2]; A549, 25 μg/mL) | viability at 50 µg/mL ([2]; A549, 50 μg/mL) | viability at 100 µg/mL ([2]; A549, 100 μg/mL) | IC50 anti-proliferative activity against A549 cells [2] | Inhibition compared to control (Bacterial FAS II enzyme) | Average ΔC (change in concentration of NADPH) (Bacterial FAS II enzyme) | Inhibition compared to control [3] | Average ΔC (change in concentration of NADPH) [3] | other results |
| --- | --- | --- | --- | --- | --- | --- | --- | --- | --- | --- | --- | --- |
| CC(C)[C@H](O)C(=O)/C(O)=C/[C@@H](N)/C=C\CCCC[C@H]1C=C[C@@H](O)C=C1 [Compound of Formula II, (3S,5Z,7S,8Z)-7-amino-3,5-dihydroxy-2-methyl-13-[(1s,4s)-4-hydroxycyclohexa-2,5-dien-1-yl]trideca-5,8-dien-4-one] | 74 to 78 µg/mL | 92.3% | 89.7% | 67.4% | 55.7% | 42.6% | 76.034 µg/mL | 30.54% | 0.03498 | 41.49% | 0.03006 | viability at 24 h, 6.25 μg/mL [1]: 90.8%; viability at 24 h, 12.5 μg/mL [1]: 85.8%; viability at 24 h, 25 μg/mL [1]: 74.7%; viability at 24 h, 50 μg/mL [1]: 64.3%; viability at 24 h, 100 μg/mL [1]: 55.8%; LD50 against L929 cell lines (L929 (Fibroblast cells)): about 89.65 μg/mL |
| C=C1C(=O)OC(CCCCCCCC)C1C(=O)O (stereo not drawn) [C75] |  |  |  |  |  |  | 99.034 µg/mL (≈ 389 µM) | 15.67% | 0.04248 | 29.60% | 0.03612 | Percentage Viability ([2]; A549, 6.25 μg/mL): 100.0%; Percentage Viability ([2]; A549, 12.5 μg/mL): 100.0%; Percentage Viability ([2]; A549, 25 μg/mL): 80.110%; Percentage Viability ([2]; A549, 50 μg/mL): 66.483%; Percentage Viability ([2]; A549, 100 μg/mL): 55.985% |
| C[C@@H]1O[C@@H](Oc2cc3c(=O)oc4c(O)c(O)cc5c(=O)oc(c2O)c3c45)[C@H](O)[C@H](O)[C@H]1O [ellagic acid 4-O-alpha-1-rhamnopyranoside] |  |  |  |  |  |  |  |  |  |  |  | IC50 against FAS [4]: 7.5 microgram/mL |
| C/C=C/C/C=C/CCC(=O)[C@H]1O[C@H]1C(N)=O [Cerulenin] | 86.4 µg/mL (≈ 387 µM) | 100% | 96.9% | 72% | 62.2% | 48.1% |  | 21.48% | 0.03955 | 36.49% | 0.03248 |  |
| O=Cc1cc(-c2coc3cc(O)cc(O)c3c2=O)ccc1O [3′-Formylgenistein] |  |  |  |  |  |  |  |  |  |  |  | IC50 ([4]; read-out: IC50 against FAS (converted)): 7.71 µM |
